Results taken from patent publication US10597388B2, “Pyridazinone herbicides” (FMC CORPORATION, priority 2014, dated 2020).

What was measured:
Assay in all cases: Test D controlled growth environment herbicide test, pre- and postemergence
Format in all cases: in vivo
[1] = system: barley, spring (spring barley, Hordeum vulgare)
Description: (§1) Seeds of plant species selected from bluegrass (annual bluegrass, Poa annua), blackgrass (Alopecurus myosuroides), Canada thistle (Cirsium arvense), canarygrass (Phalaris minor), chickweed (common chickweed, Stellaria media), geranium, cutleaf (cutleaf geranium, Geranium dissectum), galium (catchweed bedstraw, Galium aparine), bromegrass, downy (downy bromegrass, Bromus tectorum), field poppy (Papaver rhoeas), field violet (Viola arvensis), foxtail, green (green foxtail, Setaria viridis), deadnettle (henbit deadnettle, Lamium amplexicaule), ryegrass, Italian (Italian ryegrass, Lolium multiflorum), kochia (Kochia scoparia), lambsquarters (Chenopodium album), oilseed rape (Brassica napus), pigweed (Amaranthus retroflexus), chamomile (scentless chamomile, Matricaria inodora), Russian thistle (Salsola kali), speedwell (bird's-eye speedwell, Veronica persica), barley, spring (spring barley, Hordeum vulgare), wheat, spring (spring wheat, Triticum aestivum), buckwheat, wild (wild buckwheat, Polygonum convolvulus), mustard, wild (wild mustard, Sinapis arvensis), oat, wild (wild oat, Avena fatua), radish, wild (wild radish, Raphanus raphanistrum), windgrass (Apera spica-venti), barley, winter (winter barley, Hordeum vulgare), and wheat, winter (winter wheat, Triticum aestivum) were planted into a silt loam soil and treated preemergence with test chemicals formulated in a non-phytotoxic solvent mixture which included a surfactant.
(§2) At the same time, these species were planted in pots containing Redi-Earth® planting medium (Scotts Company, 14111 Scottslawn Road, Marysville, Ohio 43041) comprising spaghnum peat moss, vermiculite, wetting agent and starter nutrients and treated with postemergence applications of the test chemicals formulated in the same manner. Plants ranged in height from 2 to 18 cm (1- to 4-leaf stage). Treated plants and controls were maintained in a controlled growth environment for 14 to 21 d after which time all species were compared to controls and visually evaluated. Plant response ratings, summarized in Table D, are based on a scale of 0 to 100 where 0 is no effect and 100 is complete control. A dash (-) response means no test result.

[2] = system: bromegrass, downy (downy bromegrass, Bromus tectorum)
Description: as §1, §2

[3] = system: chamomile (scentless chamomile, Matricaria inodora)
Description: as §1, §2

[4] = system: deadnettle (henbit deadnettle, Lamium amplexicaule)
Description: as §1, §2

[5] = system: field violet (Viola arvensis)
Description: as §1, §2

[6] = system: lambsquarters (Chenopodium album)
Description: as §1, §2

[7] = system: mustard, wild (wild mustard, Sinapis arvensis)
Description: as §1, §2

[8] = system: oat, wild (wild oat, Avena fatua)
Description: as §1, §2

[9] = system: oilseed rape (Brassica napus)
Description: as §1, §2

[10] = system: radish, wild (wild radish, Raphanus raphanistrum)
Description: as §1, §2

[11] = system: speedwell (bird's-eye speedwell, Veronica persica)
Description: as §1, §2

[12] = system: wheat, spring (spring wheat, Triticum aestivum)
Description: as §1, §2

[13] = system: windgrass (Apera spica-venti)
Description: as §1, §2

[14] = Postemergence, 31 g ai/ha, scale 0 to 100 (0 no effect, 100 complete control)
[15] = Postemergence, 125 g ai/ha, visual rating on scale 0 (no effect) to 100 (complete control), 14 to 21 d
[16] = Postemergence, 250 g ai/ha, scale 0 to 100 (0 no effect, 100 complete control)
[17] = Preemergence, 62 g ai/ha, scale 0 to 100 (0 no effect, 100 complete control)
[18] = Preemergence, 125 g ai/ha, scale 0 to 100 (0 no effect, 100 complete control)
[19] = Preemergence, 250 g ai/ha, scale 0 to 100 (0 no effect, 100 complete control)
[20] = postemergence, 62 g ai/ha, scale 0 to 100, 0 no effect, 100 complete control

SMILES: Cc1ccc2sc(C)c(-c3c(O)c(C)nn(C)c3=O)c2c1 [Compound 1, 4-(2,5-dimethylbenzo[b]thien-3-yl)-5-hydroxy-2,6-dimethyl-3(2H)-pyridazinone]
- Plant response rating, Barley, Spring [1, 14]: 0
- Plant response rating, Barley, Spring [1, 15]: 5
- Plant response rating, Barley, Spring [1, 16]: 10
- Plant response rating (scale of 0 to 100), Barley, Spring ([1]; Preemergence, 31 g ai/ha): 0
- Plant response rating, Barley, Spring [1, 17]: 0
- Plant response rating, Barley, Spring [1, 18]: 10
- Barley, Spring plant response rating [1, 19]: 15
- Plant response rating, Barley, Spring [1, 20]: 5
- Bromegrass, Downy plant response rating [2, 14]: 0
- Plant response rating, Bromegrass, Downy [2, 15]: 10
- Plant response rating, Bromegrass, Downy [2, 16]: 20
- Plant response rating (scale of 0 to 100), Bromegrass, Downy ([2]; Preemergence, 31 g ai/ha): 20
- Plant response rating, Bromegrass, Downy [2, 17]: 25
- Plant response rating, Bromegrass, Downy [2, 18]: 70
- Plant response rating, Bromegrass, Downy [2, 19]: 70
- Plant response rating, Bromegrass, Downy [2, 20]: 10
- Chamomile plant response rating [3, 14]: 65
- Plant response rating, Chamomile [3, 15]: 85
- Plant response rating, Chamomile [3, 16]: 100
- Plant response rating (scale of 0 to 100), Chamomile ([3]; Preemergence, 31 g ai/ha): 95
- Plant response rating, Chamomile [3, 17]: 95
- Plant response rating, Chamomile [3, 18]: 95
- Plant response rating, Chamomile [3, 19]: 90
- Plant response rating, Chamomile [3, 20]: 75
- Deadnettle plant response rating [4, 14]: 35
- Plant response rating, Deadnettle [4, 15]: 35
- Plant response rating, Deadnettle [4, 16]: 70
- Plant response rating (scale of 0 to 100), Deadnettle ([4]; Preemergence, 31 g ai/ha): 0
- Plant response rating, Deadnettle [4, 17]: 0
- Plant response rating, Deadnettle [4, 18]: 0
- Plant response rating, Deadnettle [4, 19]: 60
- Plant response rating, Deadnettle [4, 20]: 35
- Field Violet plant response rating [5, 14]: 85
- Plant response rating, Field Violet [5, 15]: 90
- Plant response rating, Field Violet [5, 16]: 95
- Plant response rating (scale of 0 to 100), Field Violet ([5]; Preemergence, 31 g ai/ha): 95
- Plant response rating, Field Violet [5, 17]: 100
- Plant response rating, Field Violet [5, 18]: 100
- Plant response rating, Field Violet [5, 19]: 100
- Plant response rating, Field Violet [5, 20]: 75
- Lambsquarters plant response rating [6, 14]: 75
- Plant response rating, Lambsquarters [6, 15]: 90
- Plant response rating, Lambsquarters [6, 16]: 100
- Plant response rating (scale of 0 to 100), Lambsquarters ([6]; Preemergence, 31 g ai/ha): 20
- Plant response rating, Lambsquarters [6, 17]: 100
- Plant response rating, Lambsquarters [6, 18]: 100
- Plant response rating, Lambsquarters [6, 19]: 100
- Plant response rating, Lambsquarters [6, 20]: 90
- Mustard, Wild plant response rating [7, 14]: 25
- Plant response rating, Mustard, Wild [7, 15]: 40
- Plant response rating, Mustard, Wild [7, 16]: 65
- Plant response rating (scale of 0 to 100), Mustard, Wild ([7]; Preemergence, 31 g ai/ha): 0
- Plant response rating, Mustard, Wild [7, 17]: 0
- Plant response rating, Mustard, Wild [7, 18]: 10
- Plant response rating, Mustard, Wild [7, 19]: 25
- Plant response rating, Mustard, Wild [7, 20]: 30
- Oat, Wild plant response rating [8, 14]: 40
- Plant response rating, Oat, Wild [8, 15]: 80
- Plant response rating, Oat, Wild [8, 16]: 95
- Plant response rating (scale of 0 to 100), Oat, Wild ([8]; Preemergence, 31 g ai/ha): 75
- Plant response rating, Oat, Wild [8, 17]: 70
- Plant response rating, Oat, Wild [8, 18]: 95
- Plant response rating, Oat, Wild [8, 19]: 100
- Plant response rating, Oat, Wild [8, 20]: 70
- Oilseed Rape plant response rating [9, 14]: 0
- Plant response rating, Oilseed Rape [9, 15]: 35
- Plant response rating, Oilseed Rape [9, 16]: 60
- Plant response rating (scale of 0 to 100), Oilseed Rape ([9]; Preemergence, 31 g ai/ha): 0
- Plant response rating, Oilseed Rape [9, 17]: 0
- Plant response rating, Oilseed Rape [9, 18]: 5
- Plant response rating, Oilseed Rape [9, 19]: 20
- Plant response rating, Oilseed Rape [9, 20]: 15
- Radish, Wild plant response rating [10, 14]: 10
- Plant response rating, Radish, Wild [10, 15]: 30
- Plant response rating, Radish, Wild [10, 16]: 60
- Plant response rating (scale of 0 to 100), Radish, Wild ([10]; Preemergence, 31 g ai/ha): 0
- Plant response rating, Radish, Wild [10, 17]: 0
- Plant response rating, Radish, Wild [10, 18]: 15
- Plant response rating, Radish, Wild [10, 19]: 100
- Plant response rating, Radish, Wild [10, 20]: 20
- Speedwell plant response rating [11, 14]: 25
- Plant response rating, Speedwell [11, 15]: 60
- Plant response rating, Speedwell [11, 16]: 70
- Plant response rating (scale of 0 to 100), Speedwell ([11]; Preemergence, 31 g ai/ha): 70
- Plant response rating, Speedwell [11, 17]: 50
- Plant response rating, Speedwell [11, 19]: 95
- Plant response rating, Speedwell [11, 20]: 55
- Wheat, Spring plant response rating [12, 14]: 0
- Plant response rating, Wheat, Spring [12, 15]: 10
- Plant response rating, Wheat, Spring [12, 16]: 15
- Plant response rating (scale of 0 to 100), Wheat, Spring ([12]; Preemergence, 31 g ai/ha): 0
- Plant response rating, Wheat, Spring [12, 17]: 0
- Plant response rating, Wheat, Spring [12, 18]: 0
- Plant response rating, Wheat, Spring [12, 19]: 10
- Plant response rating, Wheat, Spring [12, 20]: 0
- Windgrass plant response rating [13, 14]: 10
- Plant response rating, Windgrass [13, 15]: 50
- Plant response rating, Windgrass [13, 16]: 70
- Plant response rating (scale of 0 to 100), Windgrass ([13]; Preemergence, 31 g ai/ha): 15
- Plant response rating, Windgrass [13, 17]: 60
- Plant response rating, Windgrass [13, 18]: 85
- Plant response rating, Windgrass [13, 19]: 100
- Plant response rating, Windgrass [13, 20]: 25
